From US5800820A, “Methods and compositions for treatment of angiogenic diseases” (Repligen Corporation, priority 1995, dated 1998)
Where “and” joins values, the source holds several entries; their conditions need not be identical. Equal values may be shown once.

Tests used:
Implanted tumors = assay: Anti-tumor activity of rPF4 combined with indomethacin; format: in vivo, mice; conditions: s.c. tumors, indomethacin 50 μg slow release pellet; FIG. 10
Protocol: Four groups of mice were used in this experiment. In two groups of mice, slow release indomethacin pellets (50 μg) were implanted surgically under the skin of the left flank. The other two groups were not treated with indomethacin. Tumors were implanted subcutaneously in all four groups in the right flank.

[1] = test system: hind footpad (murine dermis); assay: Footpad assay (dermal inflammation); conditions: systemic indomethacin
Protocol: (§1) Footpad Assay. 0.05 ml of PBS containing a test substance was injected intradermally into the right hind footpad of each mouse. An identical amount of diluent, not containing the test substance, was injected into the left hind footpad. At various time points, footpad thicknesses were measured with a spring loaded engineer's micrometer (Fowler Co., Biggswald, England).
(§2) At various time points, mice were sacrificed and footpad tissue was prepared for light microscopy. This tissue was used to quantify infiltrating cell types. Biopsy specimens were fixed in 10% buffered formalin for at least 48 hours and then prepared using standard techniques of paraffin embedding and staining with hematoxylin and eosin. Using an ocular grid, four cellular areas of dermis in each specimen were examined in a coded fashion at 1000× magnification and inflammatory cells were quantified. Differences between groups were assessed by Student's t test or analysis of variance, where appropriate.
(§3) For each mouse, 0.05 mg, slow release indomethacin pellets (Innovative Research, Toledo, Ohio) were implanted subcutaneously under light ether anesthesia 48 hours prior to an experiment. These pellets continuously release their contents over 14 days.

[2] = test system: heparin inhibition of thrombin; assay: Thrombin assay of heparin binding (prevention of heparin inhibition); format: biochemical; conditions: C-13: even at ten times an effective level of rPF4
[3] = test system: hind footpad (murine dermis); conditions: mouse, in vivo
Protocol: as §1, §2, §3

[4] = test system: heparin inhibition of Factor Xa; assay: Factor Xa assay of heparin binding (prevention of heparin inhibition); format: biochemical
Source text: The lysine rich region of PF4 (residues 61-66) is also the domain associated with the binding of heparin by PF4. Heparin is known to play a role in modulating angiogenesis, which can also be affected by protamine, another well characterized heparin-binding protein. To assess the ability of PF4-based synthetic peptides to bind heparin, we assayed the activity of coagulation-cascade enzymes which are inhibited by heparin. The Factor Xa assay used here has previously been described in Denton et al. (1983) Biochem. J. 209:455-460.

angiogenesis on the CAM = assay: Chicken chorioallantoic membrane (CAM) assay; format: in vivo; conditions: for biological activity in the CAM assay: Table 4, compared with rPF4-211
Protocol: Chicken Chorioallantoic Membrane (CAM) Assay. Fertile eggs were incubated in a stationary position for 3 days at 37° C. and 70-80% relative humidity. During this time, the embryo rose to the upper surface of the egg contents. At the beginning of the 4th day, the eggs were cracked without inversion and carefully deposited into sterile plastic petri dishes such that the embryo remained on the upper surface. The shell-free eggs were incubated for an additional 72 hours at 37° C., under an atmosphere containing 2.5-3.5% CO2 after which the growing embryos developed a recognizable CAM. Discs, made by mixing test samples with 1% (w/v) methylcellulose, were dried and placed on the CAM between major veins and approximately 0.5 cm from the embryo. Following another 48 hour incubation at 37° C. (2.5-3.5% CO2), the samples were scored for their ability to inhibit angiogenesis. Inhibition appears as an avascular zone surrounding the implant and can often include elbows formed by veins avoiding the disc and a reduced number of capillaries in the region of the implant.

[5] = test system: Human umbilical vein endothelial cells (HUVEC); assay: Endothelial cell proliferation assay; format: cell-based; conditions: for biological activity in the HUVEC assay: Table 4, compared with rPF4-211; for inhibition of human umbilical vein endothelial cell proliferation: FIG. 6
Protocol: Endothelial Cell Proliferation Assay. Human umbilical vein endothelial cells (HUVEC) were cultured in Medium 199 (Gibco) containing 10% (v/v) fetal bovine serum (FBS), 150 mcg/ml endothelial cell growth supplement (ECGS) and 5 units/ml heparin at 37° C. and 4-5% CO2. Every 3-4 days, the cultures were harvested by trypsin treatment, diluted, replated, and grown to confluence. Prior to the start of an experiment, the cells were centrifuged and resuspended in heparin-free media and incubated with the test substance (PF4) for 3 days under standard culture conditions. At the end of the incubation period, the cells were removed by trypsin treatment and counted with a Particle Data Elzone 180 Cell Counter. Statistical significance between means was determined by a standard Student t-test for unpaired data. […]

[6] = test system: B16 murine melanoma cell line; assay: Systemic rPF4 against B16 melanoma lung metastases; format: in vivo; conditions: for # of Metastases (#/Mouse) / Lung Wt.: day 21, average of six mice
Protocol: Cells of a B16 murine melanoma cell line were injected intravenously into a tail vein of a mouse. Thirty seconds later, rPF4 (in saline or acetate buffer) was injected into the same mouse via a different tail vein. After 21 days, the tumor burden of the test and control animals was measured by counting, optically, lung metastases, and by weighing the lungs of the mice. Referring to Table 6, PF4 produced a dose-dependent effect, as measured by both parameters.

tumor cell growth = assay: Tumor cell growth in vitro; format: cell-based
[7] = test system: Human umbilical vein endothelial cells (HUVEC); assay: Endothelial cell proliferation assay; format: cell-based; conditions: rPF4 50 mcg/ml, 5 u/ml heparin
[8] = test system: B16-F10 melanoma tumor line; assay: In vivo tumor growth assay, injection into the nascent tumor; set-up: species or system C57BL/6J female mice
Protocol: In vivo Tumor Growth Assay. Normal C57BL/6J female mice (6-8 weeks old) were inoculated subcutaneously with 5×10^5 log phase cells of a B16-F10 melanoma tumor line. This protocol led to progressive tumor growth resulting in large (300 mm^3) necrotic tumors after approximately 10 days, followed by death of untreated animals usually within three weeks of tumor inoculation.
To test the efficacy of rPF4 in preventing in vivo tumor growth and angiogenesis, tumor bearing animals were injected daily, directly into the nascent tumor, with either rPF4 or with buffer lacking rPF4, beginning one day after tumor inoculation. Tumor volume was measured at regular intervals with digital calipers by laboratory personnel uninformed of the specific treatment received by each subject animal.
The efficacy of rPF4-211 or rPF4-241 in preventing tumor growth and angiogenesis was tested. The inhibition of in vivo tumor growth was assayed after injection of either rPF4-211 (in 20 mM NaOAc, pH 4.0) or rPF4-241 (in 50 mM sodium phosphate, pH 6.5, 50 mM NaCl) directly into the nascent tumor, as described in the materials and methods section above.

Kaposi's sarcoma = assay: Cancers that contain malignant endothelial cells; conditions: such as Kaposi's sarcoma
[9] = 0.375 mg rPF4 i.v. (19.7 mg/kg)
[10] = heparin-deficient medium, FIG. 3

COc1ccc2c(c1)c(CC(=O)O)c(C)n2C(=O)c1ccc(Cl)cc1 [indomethacin]
growth of implanted tumors (Implanted tumors): grew rapidly after day 6
effect on the inflammatory cell infiltrate induced by rPF4 [1]: partially abrogated
effect on the rPF4 pro-inflammatory response ([1]; FIG. 8): significantly blunts

C-41: 41 amino acid C-terminal peptide of PF4 (IKAGPHCPTAQLIATLKNGRKICLDLQAPLYKKIIKKLLES; Platelet factor 4; UniProt P02776 61-101, looked up, fragment)
prevention of heparin inhibition of thrombin [2]: prevented heparin inhibition less effectively
Pro-inflammatory response Infiltrating [3]: ++
Pro-inflammatory response Swelling [3]: ++
composition of the inflammatory infiltrate [3]: composed of neutrophils and to a lesser degree mononuclear cells
inflammatory response [3]: pro-inflammatory
prevention of heparin inhibition of Factor Xa [4]: prevented heparin inhibition less effectively

cytochrome c [reference compound]
inflammatory response [3]: failed to elicit a significant inflammatory response

polylysine [reference compound]
inhibition of angiogenesis on the CAM (angiogenesis on the CAM; 6.5 nmol dosages): not to cause inhibition

protamine [reference compound]
prevention of heparin inhibition of thrombin [2]: approximately equimolar concentrations
prevention of heparin inhibition of Factor Xa [4]: approximately equimolar concentrations

rPF4-231: rPF4 mutant that terminates at amino acid number 60: [PF4 AA 1-57] P L Y (EAEEDGDLQCLCVKTTSQVRPRHITSLEVIKAGPHCPTAQLIATLKNGRKICLDLQAPLY; Platelet factor 4 recombinant; UniProt P02776 32-91, looked up, fragment)
biological activity in the HUVEC assay [5]: does not exhibit significant biological activity
biological activity in the CAM assay (angiogenesis on the CAM): does not exhibit significant biological activity

rPF4: recombinant platelet factor 4 with the wild type sequence, 70 residues; residues 58-70 P L Y K K I I K K L L E S
# of Metastases (#/Mouse) [6, 9]: 112.2 #/Mouse
Lung Wt. [6, 9]: 525 mg
# of Metastases (#/Mouse) ([6]; 0.75 mg rPF4 i.v. (40.1 mg/kg)): 66.0 #/Mouse
Lung Wt. ([6]; 0.75 mg rPF4 i.v. (40.1 mg/kg)): 404 mg
# of Metastases (#/Mouse) ([6]; 1.5 mg rPF4 i.v. (84.2 mg/kg)): 54.7 #/Mouse
Lung Wt. ([6]; 1.5 mg rPF4 i.v. (84.2 mg/kg)): 357 mg
toxicity or other adverse effects ([6]; systemic dosages in excess of 5000 μg per kg of body weight): no observable toxicity or other adverse effects
prevention of heparin inhibition of thrombin [2]: approximately equimolar concentrations
direct inhibition of tumor cell growth in vitro (tumor cell growth): did not directly inhibit tumor cell growth in vitro
inhibition of human umbilical vein endothelial cell proliferation [5]: effective at inhibiting the proliferation
concentration at which inhibition of endothelial cell growth was complete [5, 10]: 3.2 µM
lowest concentration with significant inhibition of endothelial cell growth [5, 10]: 1.3 µM
endothelial cell growth (cell count) ([5]; rPF4 50 mcg/ml, no heparin, three day incubation): 6.0 ± 0.6
% Inhibition ([5]; rPF4 50 mcg/ml, no heparin, based on seeding of 8 × 10^4 cells/well): 100% and ~ 100%
Pro-inflammatory response Infiltrating [3]: ++
Pro-inflammatory response Swelling [3]: ++
composition of the inflammatory infiltrate [3]: composed of neutrophils and to a lesser degree mononuclear cells
onset of acute inflammation [3]: within two hours
endothelial cell growth (cell count) ([7]; three day incubation): 14.0 ± 0.4
% Inhibition ([7]; based on seeding of 8 × 10^4 cells/well): 45%
prevention of heparin inhibition of Factor Xa [4]: approximately equimolar concentrations
growth of implanted tumors (Implanted tumors): grew very little, if at all
inhibition of angiogenesis on the CAM (angiogenesis on the CAM; discs containing several concentrations, FIG. 2): inhibited angiogenesis
time until inhibition of tumor growth was apparent ([8]; after the initial inoculation of rPF4): apparent within three days
tumor growth on continued treatment ([8]; daily injection into the tumor): completely suppressed tumor growth
tumor status ([8]; within seven days of tumor inoculation, daily injection into the tumor, FIG. 7): essentially tumor-free
effect on cancers that contain malignant endothelial cells (Kaposi's sarcoma): inhibitory

B1: rPF4-241: PF4 mutant, four lysine residues near the C-terminus changed to two Gln-Glu couplets: P L Y Q E I I Q E L L E S (protein, UniProt P02776 32-101, looked up, variant K61Q K62E K65Q K66E)
Platelet factor 4: EAEEDGDLQCLCVKTTSQVRPRHITSLEVIKAGPHCPTAQLIATLKNGRKICLDLQAPLYQEIIQELLES
modifications: Platelet factor 4 recombinant
notes: PF4 mutant, four lysine residues near the C-terminus changed to two Gln-Glu couplets: P L Y Q E I I Q E L L E S
inhibition of human umbilical vein endothelial cell proliferation [5]: effective at inhibiting the proliferation
biological activity in the HUVEC assay [5]: enhanced activity
Pro-inflammatory response Infiltrating [3]: +
Pro-inflammatory response Swelling [3]: +
heparin-binding activity ([4]; Factor Xa inhibition assay): lacked heparin-binding activity
inhibition of angiogenesis in the CAM system (angiogenesis on the CAM; 1.25 nmol/disc, lowest concentration tested, FIG. 5): extensively inhibited angiogenesis
reversal of the inhibitory effect by heparin (angiogenesis on the CAM; CAM): not reversed by heparin
biological activity in the CAM assay (angiogenesis on the CAM): enhanced activity
inhibition of angiogenesis compared with native rPF4 (angiogenesis on the CAM; equal concentrations, larger avascular zones): even more effective
tumor growth on continued treatment ([8]; daily injection into the tumor): same effect was observed

B2: rPF4-307: rPF4 mutant, C-terminal sequence P L Y Q I E I Q L E L E S (protein, UniProt P02776 32-101, looked up, variant K61Q K62I I63E I64I K65Q K66L L67E L68L)
Platelet factor 4: EAEEDGDLQCLCVKTTSQVRPRHITSLEVIKAGPHCPTAQLIATLKNGRKICLDLQAPLYQIEIQLELES
modifications: Platelet factor 4 recombinant
biological activity in the HUVEC assay [5]: enhanced activity
biological activity in the CAM assay (angiogenesis on the CAM): enhanced activity

B3: rPF4-302: rPF4 mutant, C-terminal sequence P L Y Q Q I I Q Q L L E S (protein, UniProt P02776 32-101, looked up, variant K61Q K62Q K65Q K66Q)
Platelet factor 4: EAEEDGDLQCLCVKTTSQVRPRHITSLEVIKAGPHCPTAQLIATLKNGRKICLDLQAPLYQQIIQQLLES
modifications: Platelet factor 4 recombinant
biological activity in the HUVEC assay [5]: does not exhibit significant activity
biological activity in the CAM assay (angiogenesis on the CAM): does not exhibit significant activity
